Results taken from publication PMC9763021, “Comprehensive Assessment of Biomolecular Interactions of Morpholine-Based Mixed Ligand Cu(II) and Zn(II) Complexes of 2,2′-Bipyridine as Potential Anticancer and SARS-CoV-2 Agents: A Synergistic Experimental and Structure-Based Virtual Screening” (Bioinorganic Chemistry and Applications, 2022).

Legend:
[1] = system: HepG2 liver cancer cell line; assay: MTT cell viability assay, HepG2; type: cell-based, human
Experimental: (§1) All substances towards the A549, HepG2, MCF-7, and NHDF cell lines were evaluated by using the MTT approach. The collected data were utilized to compute the IC50 value and contrast it with the gold standard cisplatin anticancer medication.
(§2) Cellular viability or metabolic properties can be measured using the MTT assay, which is a powerful and credible method for anticancer properties. The anticancer efficacy of all test compounds was investigated by the MTT assay against A549, HepG2, MCF-7, and NHDF cell lines. As per the colorimetric approach, the IC50 findings of all test substances were evaluated as the % of cell viability/growth inhibition. […] Nevertheless, complex (1a) has the highest cytotoxic potential among others. The acquired findings were in the subsequent sequence as follows: (cisplatin) > (1a) > (2a) > (HL) (Figure 16 and Table 10). The cytotoxic effectiveness is dependent upon the DNA-binding modalities, the structure-activity relationship, as well as drug concentrations and incubation period exposure. […] As per Tweedy's chelation theory, charge equilibration happens as a result of coordination between the ligands and metal ions, which minimises the polarity of the metal ions and causes the capability of the test complexes to pass via the cell membrane lipid layer. Thus, it put off the synthesis of cell wall/protein/nucleic acids. Additionally, the results of DNA-binding tests using these complexes, including gel electrophoresis, UV-visible spectral titration, hydrodynamic, emission, and CV findings, were in good agreement with the findings of cytotoxicity. The expressions (46) and (47) were supported to measure the % of growth inhibition and cell viability. […]
(§3) A549, HepG2 MCF-7, and NHDF are represented as human lung cancer cell line, liver cancer cell line, breast cancer cell line, and normal human dermal fibroblasts cell line.(45) % Cytotoxiciy=1− Mean absorbance of Sample at 595 nm/Mean absorbance of Controlat 595 nm ×100, (46) Cellviability%=100−Cytotoxiciy%.

[2] = system: NHDF normal human dermal fibroblasts cell line; assay: MTT cell viability assay, NHDF; type: cell-based; settings: 72 hours exposure, normal cells
Experimental: as §1, §2, §3

[3] = system: CT-DNA; assay: DNA cleavage by gel electrophoresis in H2O2 environment; type: biochemical, calf thymus; settings: DNA + H2O2, Tris-HCl pH 7.4, agarose gel
Experimental: The characteristics were examined of all substances along with DNA containing H2O2 and Tris-HCl buffer solution (pH: 7.4). The tank solution's gel layer was lifted out after the experiment was finished and put in front of a UV transilluminator. Additionally, each band lane was scrutinized with control (DNA + H2O2).
Using the gel electrophoresis method, the DNA nuclease properties for all samples were assessed under the H2O2 environment. The examined DNA nuclease efficacy for all complexes (1a-2a) was contrasted with free ligand (HL) and CT-DNA alone. The raw data for electrophoretic gels and blots were also enclosed in the electronic supplementary file (Figure S15). In Figure 1, no substantial nuclease activity can be seen in the control (lane 1; DNA + H2O2) even after a lot of time has passed and the free ligand (HL) (lane: 2) was monitored as immobile in an H2O2 environment. […] Furthermore, ROS include O2^•−, H2O2, OH^•, ROOH, ROO^•, HOCl, and ^1O2 (singlet oxygen) and ozone (O3), which play essential roles in living systems. Consequently, it has commonly been acknowledged that ROS plays a dual physiological role in controlling a variety of illnesses as well as cellular homeostasis (self-regulating processes such as thermoregulation, blood glucose regulation, calcium/potassium homeostasis, and osmoregulation). […] Additionally, it is widely known that NADPH oxidase generates reactive oxygen species as a portion of its antibacterial effect on phagocytic cells. Nevertheless, these types of enzymes seem to be present in a variety of other cells as well and may have significant signalling pathway functions. When noncarcinogenic toxicity events occur, ROS has the ability to alter cell function as well as affect the genes of cancer at several levels. OH^• can attack DNA, proteins, and lipids due to its high reactivity among ROS. The hydroxyl radical is a key participant in free radical-mediated hazardous reactions because of its great reactivity. The free radicals are also essential for the redox regulation of many cellular signalling pathways and proper cellular functions. […]

[4] = system: MCF-7 breast cancer cell line; assay: MTT cell viability assay, MCF-7; type: cell-based, human
Experimental: as §1, §2, §3

[5] = system: A549 human lung cancer cell line; assay: MTT cell viability assay, A549; type: cell-based
Experimental: as §1, §2, §3

| Structure (SMILES) | IC50 ([1]; 72 hours exposure) | IC50 [2] | DNA cleavage (nuclease activity) [3] | IC50 ([4]; 72 hours exposure) | IC50 ([5]; 72 hours exposure) | IC50 ([1]; Homo sapiens, HepG2, 72 hours exposure) | IC50 ([2]; Homo sapiens, NHDF) | IC50 ([4]; Homo sapiens, MCF7, 72 hours exposure) | IC50 ([5]; Homo sapiens, A549, 72 hours exposure) |
| --- | --- | --- | --- | --- | --- | --- | --- | --- | --- |
| [Cu+2].[O-]c1ccccc1N=Cc1ccc(N2CCOCC2)cc1.[O-]c1ccccc1N=Cc1ccc(N2CCOCC2)cc1.c1ccc(-c2ccccn2)nc1 [(1a), [Cu(L)2(bpy)]] | 33.1 ± 1.7 µM | 73.6 ± 3.7 µM | complete DNA cleavage | 32.1 ± 1.6 µM | 30.8 ± 1.5 µM |  |  |  |  |
| Oc1ccccc1N=Cc1ccc(N2CCOCC2)cc1 [(HL), 2-(4-morpholinobenzylideneamino)phenol] |  |  | immobile |  |  | 108 ± 5.4 µM | 209 ± 10.4 µM | 105 ± 5.3 µM | 126 ± 6.3 µM |
| [O-]c1ccccc1N=Cc1ccc(N2CCOCC2)cc1.[O-]c1ccccc1N=Cc1ccc(N2CCOCC2)cc1.[Zn+2].c1ccc(-c2ccccn2)nc1 [(2a), [Zn(L)2(bpy)]] |  |  | partially cleaves DNA |  |  |  |  |  |  |
